Results taken from patent publication US20100280975A1, “SYSTEMS FOR CLINICAL TRIALS” (WisTa Laboratories Ltd., priority 2007, published 2010).
“And” between values parts separate entries of the source, which are not always exact repeats. Identical values can stand only once.

Legend:
[1] = tested on: mild and moderate dementia of the Alzheimer type; test: rember™ study: ADAS-cog change over 50 weeks, linear imputation for fit-survivor bias; format: in vivo, human; conditions: for Estimated change from baseline, Least Exposed Dose comparator method / Estimated effect size, Least Exposed Dose comparator method: 50 weeks; for Estimated effect size, Least Exposed Dose comparator method: vs placebo-low arm; for Effect size inferred from least-squares analysis at 50 weeks / Effect size inferred from mixed effects analysis at 50 weeks: vs inferred placebo
Source text: A method has been developed by the inventors which has not been described previously which permits unbiased correction for the fit-survivor phenomenon. […] If a patient who was CDR-moderate at baseline discontinued medication at some time after 24 weeks, a straight line is fitted to the graph of available ADAS-cog change scores against visit-date for the available data for each subject. The line was not forced to pass through zero, to allow for placebo effect, and because the first visit is subject to random fluctuations. The use of a straight-line fit per-subject is supported by the large studies of Stern et al., (1994), Doraiswamy et al., (2001) and Winblad, B., Wimo, A., Engedal, K., Soininen, H., Verhey, F., Waldemar, G., Wetterholm, A. L., Haglund, A., Zhang, R., Schindler, R. (2006) 3-year study of donepezil therapy in Alzheimer's disease: effects of early and continuous therapy. […] The same approach can be applied to other outcome measures for which there were assessments scheduled after 24 weeks.
Subjects originally randomized to placebo were switched to the low (100 mg) dose bd after 24 weeks. This is referred to as the “placebo-low” treatment arm.
In this chart, the labelling conventions of “placlow” refers to subjects randomised to placebo and changed to low (100 mg) bd after 24 weeks, “low” refers to low (100 mg) dose tid, “30 mg” refers to 30 mg dose tid and “60 mg” refers to 60 mg dose tid.

[2] = tested on: mild and moderate dementia of the Alzheimer type; test: rember™ Phase 2 study: ADAS-cog change over 24 weeks; conditions: for Estimate, ADAS-cog change vs placebo, LM (ANCOVA) analysis / Estimate, change in ADAS-cog score vs intercept, least squares / Estimate, change in ADAS-cog score vs intercept, mixed effects / Estimate, change in ADAS-cog score vs intercept (placebo), linear least squares / Estimate, change in ADAS-cog score vs intercept (placebo), linear mixed effects: ITT/LOCF
[3] = with interaction term, week 24, CDR-mild, 30 mg tid
[4] = with interaction term, week 24, CDR-mild, 60 mg tid
[5] = with interaction term, week 24, CDR-mild, low (100 mg) tid
[6] = with interaction term, week 24, CDR-moderate, 30 mg tid
[7] = with interaction term, week 24, CDR-moderate, 60 mg tid
[8] = with interaction term, week 24, CDR-moderate, low (100 mg) tid
[9] = without interaction term, week 24, 30 mg tid
[10] = without interaction term, week 24, 60 mg tid
[11] = without interaction term, week 24, low (100 mg) tid
[12] = ITT/OC, CDR-moderates, mixed-effects model, low (100 mg) tid

Which results are given for `CN(C)c1ccc2nc3ccc(=[N+](C)C)cc-3sc2c1` [rember™, methylthioninium chloride]?
initial symptomatic improvement at 15 weeks, ADAS-cog ([1]; 60 mg dose): 1.6 ADAS-cog units; subjects improved or stayed the same on the ADAS-cog scale at 50 weeks ([1]; 60 mg tid): about 60%; Estimated change from baseline, Least Exposed Dose comparator method ([1]; 30 mg tid): 3.95 ADAS-cog units; Estimated change from baseline, Least Exposed Dose comparator method ([1]; low (100 mg) tid): 4.00 ADAS-cog units; Estimated effect size, Least Exposed Dose comparator method ([1]; 30 mg tid): −2.80 ADAS-cog units; Estimated effect size, Least Exposed Dose comparator method ([1]; 60 mg tid): −5.71 ADAS-cog units; Estimated effect size, Least Exposed Dose comparator method ([1]; low (100 mg) tid): −2.76 ADAS-cog units; Effect size inferred from least-squares analysis at 50 weeks ([1]; 30 mg tid): −4.37 ADAS-cog units; Effect size inferred from mixed effects analysis at 50 weeks ([1]; 30 mg tid): −3.87 ADAS-cog units; Effect size inferred from least-squares analysis at 50 weeks ([1]; 60 mg tid): −6.50 ADAS-cog units; Effect size inferred from least-squares analysis at 50 weeks ([1]; low (100 mg) tid): −3.59 ADAS-cog units; Effect size inferred from mixed effects analysis at 50 weeks ([1]; low (100 mg) tid): −4.04 ADAS-cog units; effect size in the entire ITT population of mild and moderate AD ([2]; 60 mg tid, OC and LOCF analyses, 24 weeks, pooled CDR-mild and CDR-moderate): −1.0 to −1.2 ADAS-cog units; Estimate, ADAS-cog change vs placebo, LM (ANCOVA) analysis ([2]; with interaction term, 24-week time-point, CDR-mild, 60 mg tid): −0.20 ADAS-cog units; Estimate, ADAS-cog change vs placebo, LM (ANCOVA) analysis ([2]; with interaction term, 24-week time-point, CDR-mild, low (100 mg) tid): −0.79 ADAS-cog units; Estimate, ADAS-cog change vs placebo, LM (ANCOVA) analysis ([2]; with interaction term, 24-week time-point, CDR-moderate, 30 mg tid): −3.00 ADAS-cog units; Estimate, ADAS-cog change vs placebo, LM (ANCOVA) analysis ([2]; with interaction term, 24-week time-point, CDR-moderate, low (100 mg) tid): −0.40 ADAS-cog units; Estimate, change in ADAS-cog score vs intercept, least squares [2, 3]: 0.46 ADAS-cog units; Estimate, change in ADAS-cog score vs intercept, mixed effects [2, 3]: 0.46 ADAS-cog units; Estimate, change in ADAS-cog score vs intercept, least squares [2, 4]: −0.73 ADAS-cog units; Estimate, change in ADAS-cog score vs intercept, mixed effects [2, 4]: −0.73 ADAS-cog units; Estimate, change in ADAS-cog score vs intercept, least squares [2, 5]: −0.18 ADAS-cog units; Estimate, change in ADAS-cog score vs intercept, mixed effects [2, 5]: −0.18 ADAS-cog units; Estimate, change in ADAS-cog score vs intercept, least squares [2, 6]: −1.05 ADAS-cog units; Estimate, change in ADAS-cog score vs intercept, mixed effects [2, 6]: −1.05 ADAS-cog units; Estimate, change in ADAS-cog score vs intercept, least squares [2, 7]: −3.70 ADAS-cog units; Estimate, change in ADAS-cog score vs intercept, mixed effects [2, 7]: −3.70 ADAS-cog units; Estimate, change in ADAS-cog score vs intercept, least squares [2, 8]: 1.06 ADAS-cog units; Estimate, change in ADAS-cog score vs intercept, mixed effects [2, 8]: 1.06 ADAS-cog units; Estimate, ADAS-cog change vs placebo, LM (ANCOVA) analysis ([2]; without interaction term, 24-week assessment data only, 30 mg tid): −0.04 ADAS-cog units; Estimate, ADAS-cog change vs placebo, LM (ANCOVA) analysis ([2]; without interaction term, 24-week assessment data only, low (100 mg) tid): −0.78 ADAS-cog units; Estimate, change in ADAS-cog score vs intercept (placebo), linear least squares [2, 9]: 0.04 ADAS-cog units; Estimate, change in ADAS-cog score vs intercept (placebo), linear mixed effects [2, 9]: 0.04 ADAS-cog units; Estimate, change in ADAS-cog score vs intercept (placebo), linear least squares [2, 10]: −1.18 ADAS-cog units; Estimate, change in ADAS-cog score vs intercept (placebo), linear mixed effects [2, 10]: −1.18 ADAS-cog units; Estimate, change in ADAS-cog score vs intercept (placebo), linear least squares [2, 11]: −0.03 ADAS-cog units; Estimate, change in ADAS-cog score vs intercept (placebo), linear mixed effects [2, 11]: −0.03 ADAS-cog units; ADAS-cog change from baseline at 24 weeks ([2]; ITT/OC, CDR-moderates, mixed-effects model, 30 mg tid): 1.03 ADAS-cog units; ADAS-cog change from baseline at 24 weeks ([2]; ITT/OC, CDR-moderates, mixed-effects model, 60 mg tid): −0.36 ADAS-cog units; ADAS-cog change from baseline at 24 weeks [2, 12]: 4.6 ADAS-cog units and 4.63 ADAS-cog units; ADAS-cog effect size at 24 weeks (vs placebo) [2, 12]: −0.42 ADAS-cog units; Estimate, change in ADAS-cog score vs intercept, linear least squares ([2]; ITT/OC, with interaction term, week 24, CDR-mild, 30 mg tid): 0.43 ADAS-cog units
